Measurements taken from article PMC7563222, “Recognition of Dimeric Lewis X by Anti-Dimeric Le^x Antibody SH2” (Vaccines, 2020).

Tests used:
mAb SH2 [1] = assay: Indirect titration ELISA of SH2 ascites against coated glycoconjugates; format: binding, mouse; details: antigens coated at 10 μg/mL; 2 and 5 also at 20 µg/mL (not shown)
Experimental: MaxiSorp NUNC 96-well enzyme-linked immunosorbent assay (ELISA) microtiter plate (Thermo Fisher Scientific) was coated with a dilution of glycoconjugates 1–5 and BSA (100 μL per well, […]) in a 10 mM phosphate-buffered saline (PBS) solution at pH 7.1. The plate was covered with sealing tape and incubated at 4 °C overnight. The antigen solution was discarded, and the plate was washed (using ELx405 auto plate washer, 5 × 15 s) with a 10 mM PBS buffer at pH 7.3 containing 0.05% Tween 20. The plate was blocked with 0.05% skim milk in 10 mM PBS (300 μL per well) and incubated for 1 h at 37 °C. The plate was then washed with 10 mM PBS-0.05% Tween 20. A 1:100 dilution of SH2 ascites was prepared and 146 μL of the dilution was distributed in the wells corresponding to the primary dilution. All other wells received 100 μL of the 10 mM PBS-0.05% Tween 20 pH 7.3 buffer. In-plate serial dilutions were performed in which 46 μL of the primary dilution was pipetted downward along the rows. The well contents were mixed by rinsing the pipette tips (7×). Lastly, 46 μL of the mAb solution was removed and discarded from the wells, which received the final solution of mAb (final volume in all wells, 100 μL). The last row of the 96-well plate was used as the blank control. MAb SH2 ascites were not pipetted into these wells, rather 100 μL of 10 mM PBS-0.05% Tween 20 was added. The plate was incubated for 2 h at 23 °C (in the dark). The plate was subsequently washed using the plate washer with PBS-0.05% Tween 20. A dilution of commercially available horseradish peroxidase labeled goat anti-mouse antibody (Mandel Scientific) (1:5000 in 10 mM PBS-0.05% Tween 20, 100 μL per well) was added to each well. After 1 h of incubation at 23 °C (in the dark), the plate was washed with PBS-0.05% Tween 20. A solution of the chromogenic substrate 3,3′,5,5′-tetramethylbenzidine (TMB) (Mandel Scientific) (100 μL per well) was added. After a 10 min incubation period at 23 °C (in the dark), 100 μL of 5% Phosphoric Acid stop solution was added to the wells to quench the reaction. The absorbance values were read at 450 nm employing a PowerWave XS plate reader. All samples were prepared in triplicate. The absorbance values were plotted against an increasing serum dilution. The values were fitted to a 4-parameter logistics sigmoidal equation: y = y0 + a/[1 + (x/x0)^b] using Sigma Plot®® 10.0.

mAb SH2 [2] = assay: Competitive ELISA: inhibition of mAb SH2 binding to immobilized (DimLe^x)16-BSA conjugate 1; parameters: species or system mouse; details: (DimLe^x)16-BSA 1 immobilized; SH2 serum dilution 1:500 (Figure 5)
Experimental: A MaxiSorp NUNC 96-well ELISA microtiter plate was coated with a dilution of the (DimLe^x)16-BSA conjugate 1 (100 μL per well, 5 μg/mL) in a 10 mM PBS solution at pH 7.1. The plate was covered with sealing tape and incubated at 4 °C overnight. The antigen solution was discarded, and the plate was washed (using ELx405 auto plate washer, 5 × 15 s) with a 10 mM PBS buffer at pH 7.3 containing 0.05% Tween 20. In 1.5 mL Eppendorf tubes, 175 μL dilutions of competitors (concentration ranging from 0.632 mg/mL to 2 mg/mL in 10 mM PBS-0.05% Tween 20) were incubated for 1 h at 23 °C (in the dark) with 175 μL of a solution of SH2 ascites (1:500 dilution in 10 mM PBS-0.05% Tween 20). At the same time, the plate was blocked with 0.05% skim milk in PBS (300 μL per well). After 1 h of incubation at 37 °C, the plate was washed with 10 mM PBS-0.05% Tween 20. Each well then received 100 μL of the competitor-mAb mixture. Three wells were used as the blank control in which the competitor-mAb mixture was not added, rather received 100 μL of 10 mM PBS-0.05% Tween 20. The plate was incubated for 3 h at 23 °C (in the dark). The plate was subsequently washed using the plate washer with PBS-0.05% Tween 20. A dilution of commercially available horseradish peroxidase labeled goat anti-mouse antibody (1:5000 in 10 mM PBS-0.05% Tween 20, 100 μL per well) was added to each well. After 1 h of incubation at 23 °C (in the dark), the plate was washed with 10 mM PBS-0.05% Tween 20. A solution of the chromogenic substrate TMB (100 μL per well) was added. After a 10 min incubation period at 23 °C (in the dark), 100 μL of 5% Phosphoric Acid stop solution was added to the wells to quench the reaction. The absorbance values were read at 450 nm employing a PowerWave XS plate reader. All samples were prepared in triplicate. The absorbance values were plotted as the percentage inhibition against an increasing concentration of competitor, calculated using wells containing no competitor as the reference point. The values were fitted to a 4-parameter logistics sigmoidal equation: y = y0 + a/[1 + (x/x0)^b] using Sigma Plot 10.0. The concentration of each analogue required for 50% inhibition (IC50) of Le^x-SH2 binding and the corresponding changes in free energy Δ(ΔG) of binding (kcal·mol^−1) using DimLe^xOPr 6 (Table 1) or Le^xOMe 7 (Table 2) as the reference were calculated.

Substance | Binding of SH2 to coated antigen (titration, in words) (mAb SH2 [1]) | Inhibition of SH2 binding to (DimLe^x)16-BSA by glycoconjugates as soluble inhibitors (in words) (mAb SH2 [2])
(Le^x)10-BSA [compound 3] | no binding | did not
(Le^x)35-BSA [compound 4] | weakly binds | did not
